Reference: ChEMBL document CHEMBL5244211, “Current anti-diabetic agents and their molecular targets: A review” (Eur J Med Chem, 2018)

How the values were obtained:
[1] = biological target: T1, Glucose-dependent insulinotropic receptor (Homo sapiens, UniProt Q8TDV5); test: Agonist activity at human GPR119 expressed in CHO-K1 cells assessed as increase in intracellular cAMP level incubated for 5 mins by fluorescence analysis; type: cell-based
T1 sequence (Q8TDV5 whole entry): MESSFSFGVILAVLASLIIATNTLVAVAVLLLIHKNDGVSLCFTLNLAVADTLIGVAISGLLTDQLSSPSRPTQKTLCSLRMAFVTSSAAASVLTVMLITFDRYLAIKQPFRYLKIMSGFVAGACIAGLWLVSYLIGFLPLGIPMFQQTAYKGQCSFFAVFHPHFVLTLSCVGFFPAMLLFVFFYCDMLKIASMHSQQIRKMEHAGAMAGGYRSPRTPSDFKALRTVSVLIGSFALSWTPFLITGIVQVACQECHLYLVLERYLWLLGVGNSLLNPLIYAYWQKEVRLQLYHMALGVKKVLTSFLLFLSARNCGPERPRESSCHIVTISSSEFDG

[2] = biological target: T2, Fructose-1,6-bisphosphatase 1 (Homo sapiens, UniProt P09467); test: Inhibition of FBPase (unknown origin)
T2 sequence (P09467 whole entry): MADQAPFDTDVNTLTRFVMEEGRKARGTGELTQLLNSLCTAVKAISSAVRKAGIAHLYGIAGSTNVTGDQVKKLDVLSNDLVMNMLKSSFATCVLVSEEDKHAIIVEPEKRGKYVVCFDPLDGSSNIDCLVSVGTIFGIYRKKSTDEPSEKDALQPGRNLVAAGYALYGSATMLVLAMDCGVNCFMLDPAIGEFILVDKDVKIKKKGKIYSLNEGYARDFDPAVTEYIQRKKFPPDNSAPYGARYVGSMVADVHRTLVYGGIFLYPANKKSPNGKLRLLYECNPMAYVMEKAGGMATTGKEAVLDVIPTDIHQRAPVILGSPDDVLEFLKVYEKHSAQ

[3] = Inhibition of calf lens ALR2 using glyceraldehyde as substrate incubated for 5 mins in presence of NADPH by UV-spectrophotometric analysis; type: tissue-based, Bos taurus
[4] = Inhibition of bovine kidney ALR1 in presence of NADPH by UV spectrophotometric analysis; type: tissue-based, Bos taurus
[5] = Inhibition of Calf ALR2 in presence of NADPH by UV spectrophotometric analysis; design: species or system Bos taurus
[6] = biological target: T3, Tyrosine-protein phosphatase non-receptor type 1 (Homo sapiens, UniProt P18031); test: Inhibition of PTP1B (unknown origin)
T3 sequence (P18031 whole entry): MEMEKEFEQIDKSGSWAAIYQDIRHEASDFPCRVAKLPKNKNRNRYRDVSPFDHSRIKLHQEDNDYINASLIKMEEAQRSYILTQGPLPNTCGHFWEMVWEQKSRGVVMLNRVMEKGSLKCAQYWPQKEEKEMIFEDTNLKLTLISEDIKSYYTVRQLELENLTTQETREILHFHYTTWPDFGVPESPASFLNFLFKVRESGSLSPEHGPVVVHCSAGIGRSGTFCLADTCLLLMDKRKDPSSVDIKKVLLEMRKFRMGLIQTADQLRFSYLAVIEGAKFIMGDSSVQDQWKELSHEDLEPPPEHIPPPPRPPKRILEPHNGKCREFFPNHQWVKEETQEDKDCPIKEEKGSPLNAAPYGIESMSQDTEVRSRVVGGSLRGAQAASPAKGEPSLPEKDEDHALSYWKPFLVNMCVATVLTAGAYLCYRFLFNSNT

[7] = biological target: T4, Tyrosine-protein phosphatase non-receptor type 2 (Homo sapiens, UniProt P17706); test: Inhibition of TC-PTP (unknown origin)
T4 sequence (P17706 whole entry): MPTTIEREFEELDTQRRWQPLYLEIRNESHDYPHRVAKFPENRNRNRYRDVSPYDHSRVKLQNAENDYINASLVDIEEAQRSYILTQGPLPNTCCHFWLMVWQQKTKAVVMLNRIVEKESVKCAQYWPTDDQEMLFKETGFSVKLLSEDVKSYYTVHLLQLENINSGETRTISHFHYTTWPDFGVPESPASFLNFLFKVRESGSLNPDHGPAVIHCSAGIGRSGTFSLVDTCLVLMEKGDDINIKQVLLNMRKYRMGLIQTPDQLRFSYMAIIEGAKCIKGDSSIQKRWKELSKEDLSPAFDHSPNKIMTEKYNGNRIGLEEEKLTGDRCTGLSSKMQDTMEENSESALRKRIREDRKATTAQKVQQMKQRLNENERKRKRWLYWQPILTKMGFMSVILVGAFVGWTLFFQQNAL

[8] = species on record: Homo sapiens; test: Selectivity ratio of IC50 for inhibition of TC-PTP (unknown origin) to IC50 for inhibition of PTP1B (unknown origin)
[9] = biological target: T5, Free fatty acid receptor 4 (Homo sapiens, UniProt Q5NUL3); test: Agonist activity at human GPR120 expressed in CHO cells assessed as intracellular phosphorylated ERK incubated for 16 to 18 hrs by AlphaScreen SureFire assay; type: cell-based
T5 sequence (Q5NUL3 whole entry): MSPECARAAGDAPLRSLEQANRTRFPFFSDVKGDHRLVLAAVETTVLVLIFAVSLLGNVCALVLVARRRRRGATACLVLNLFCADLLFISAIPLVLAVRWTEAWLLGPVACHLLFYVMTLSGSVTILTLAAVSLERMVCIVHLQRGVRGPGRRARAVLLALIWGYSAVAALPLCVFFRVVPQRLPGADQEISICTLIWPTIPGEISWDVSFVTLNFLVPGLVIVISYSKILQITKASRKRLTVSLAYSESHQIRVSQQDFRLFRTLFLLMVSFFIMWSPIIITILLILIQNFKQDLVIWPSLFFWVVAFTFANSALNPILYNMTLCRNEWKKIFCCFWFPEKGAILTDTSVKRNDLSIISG

[10] = biological target: T6, Free fatty acid receptor 4 (Mus musculus) (UniProt Q7TMA4); test: In vivo agonist activity at GPR120 in C57BL/6 mouse assessed as reduction in glucose AUC levels at 30 mg/kg,po and measured upto 120 mins by OGTT test; type: functional, organism-based; design: scale not given: the % may be the effect or the level left
T6 sequence (whole entry): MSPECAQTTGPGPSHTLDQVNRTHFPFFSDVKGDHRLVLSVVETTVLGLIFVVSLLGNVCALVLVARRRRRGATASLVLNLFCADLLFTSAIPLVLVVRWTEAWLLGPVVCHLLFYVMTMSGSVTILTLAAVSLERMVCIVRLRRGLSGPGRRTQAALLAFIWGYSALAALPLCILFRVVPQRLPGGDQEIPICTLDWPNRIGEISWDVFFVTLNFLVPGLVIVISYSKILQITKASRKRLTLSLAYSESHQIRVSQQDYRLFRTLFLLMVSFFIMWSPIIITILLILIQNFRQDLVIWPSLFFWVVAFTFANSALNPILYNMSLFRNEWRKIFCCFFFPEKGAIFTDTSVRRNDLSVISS

[11] = biological target: Alpha-glucosidase (Saccharomyces cerevisiae S288c, UniProt P53341+P38158+P07265); test: Inhibition of Saccharomyces cerevisiae alpha-glucosidase using p-nitrophenol-alpha-D-glucopyranoside as substrate incubated for 15 mins by spectrophotometric method; type: protein assay
[12] = biological target: T7, Alpha-glucosidase (Saccharomyces cerevisiae S288c) (UniProt P53341+P38158+P07265); test: Inhibition of Saccharomyces cerevisiae alpha-glucosidase assessed as dissociation rate constant (k1) using p-nitrophenol-alpha-D-glucopyranoside as substrate by Lineweaver-Burk plot analysis; type: protein assay
[13] = biological target: T7, Alpha-glucosidase (Saccharomyces cerevisiae S288c); test: Inhibition of Saccharomyces cerevisiae alpha-glucosidase assessed as dissociation rate constant (k2) using p-nitrophenol-alpha-D-glucopyranoside as substrate by Lineweaver-Burk plot analysis; type: protein assay
[14] = biological target: Dipeptidyl peptidase 4 (Homo sapiens, UniProt P27487); test: Inhibition of DPP4 (unknown origin)
[15] = biological target: Glucagon receptor (Rattus norvegicus, UniProt P30082); test: Displacement of [125I]-glucagon from GCGR in Sprague-Dawley rat liver assessed as decrease in glucagon-stimulated CAMP production incubated for 45 mins by scintillation counter analysis; type: tissue-based
Glucagon receptor, sequence (P30082 whole entry): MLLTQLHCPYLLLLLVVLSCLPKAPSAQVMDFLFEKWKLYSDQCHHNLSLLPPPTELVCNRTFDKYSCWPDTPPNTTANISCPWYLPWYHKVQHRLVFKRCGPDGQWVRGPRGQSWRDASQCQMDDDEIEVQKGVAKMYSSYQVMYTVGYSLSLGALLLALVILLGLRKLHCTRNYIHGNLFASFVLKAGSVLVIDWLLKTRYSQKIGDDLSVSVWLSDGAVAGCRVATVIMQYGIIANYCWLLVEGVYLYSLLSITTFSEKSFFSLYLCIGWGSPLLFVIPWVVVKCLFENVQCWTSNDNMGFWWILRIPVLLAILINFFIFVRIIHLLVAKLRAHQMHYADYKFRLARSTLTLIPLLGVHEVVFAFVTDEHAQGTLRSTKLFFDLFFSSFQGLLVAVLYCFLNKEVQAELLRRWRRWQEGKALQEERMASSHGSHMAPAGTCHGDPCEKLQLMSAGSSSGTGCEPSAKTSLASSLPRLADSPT

Dipeptidyl peptidase 4, sequence (P27487 whole entry): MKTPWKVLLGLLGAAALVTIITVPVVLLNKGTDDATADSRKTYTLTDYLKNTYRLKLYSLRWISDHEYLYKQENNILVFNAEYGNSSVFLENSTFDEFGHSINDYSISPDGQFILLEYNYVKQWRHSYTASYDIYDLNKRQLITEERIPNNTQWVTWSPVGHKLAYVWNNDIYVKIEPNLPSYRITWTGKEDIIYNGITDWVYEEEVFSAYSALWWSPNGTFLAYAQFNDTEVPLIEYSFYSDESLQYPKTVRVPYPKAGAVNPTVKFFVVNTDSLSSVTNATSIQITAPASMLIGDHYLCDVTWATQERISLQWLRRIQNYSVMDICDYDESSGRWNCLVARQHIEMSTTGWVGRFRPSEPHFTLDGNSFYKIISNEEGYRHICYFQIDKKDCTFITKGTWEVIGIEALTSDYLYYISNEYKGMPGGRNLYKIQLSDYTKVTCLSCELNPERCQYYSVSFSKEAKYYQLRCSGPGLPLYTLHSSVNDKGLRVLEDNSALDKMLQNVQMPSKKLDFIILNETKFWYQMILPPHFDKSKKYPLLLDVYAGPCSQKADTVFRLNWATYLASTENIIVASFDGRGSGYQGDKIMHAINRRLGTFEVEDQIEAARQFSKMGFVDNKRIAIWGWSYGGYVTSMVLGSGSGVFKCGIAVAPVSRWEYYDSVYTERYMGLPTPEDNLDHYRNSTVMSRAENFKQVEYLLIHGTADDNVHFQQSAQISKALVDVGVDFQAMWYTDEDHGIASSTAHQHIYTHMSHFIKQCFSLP

With `O=c1[nH]ncn1-c1ccc(-c2ccc(N3CCNCC3)nc2)cc1` the EC50 [1] was 0.0028 µM.

`Cc1ccc(-c2nnc(-c3cccc(NC(=O)CCCCO)c3)o2)cc1` showed an IC50 [2] of 5.61 µM.

Compound `Cc1ccc(-c2nn(-c3ccccc3)cc2/C=C2\SC(=S)N(c3cccc(Br)c3)C2=O)cc1` has an IC50 [3] of 1.22 µM.

`Nc1cc(Cl)ccc1/C(=N/Nc1nc(-c2cc3ccccc3oc2=O)cs1)c1ccccc1` showed an IC50 [4] of 0.459 µM and an IC50 [5] of 0.11 µM.

With `COc1cc(/C=C2\SC(=S)N(Cc3ccc(C(=O)O)cc3)C2=O)ccc1OCc1ccccc1` the IC50 [6] was 1.1 µM, the IC50 [7] was 3.5 µM and the Ratio IC50 [8] was 2.

`O=C(O)[C@H]1C[C@@H]1CCC12CCC(c3cccc(Oc4ccccc4)c3)(CC1)O2` gave an EC50 [9] of 0.22 µM and an Activity [10] of 60%.

For `Cc1cc2c(c(=O)[nH]1)C(=O)O/C2=C\c1cc(Br)cs1`, the IC50 [11] was 0.24 µM, the Kdiss [12] was 0.22 µM and the Kdiss [13] was 0.25 µM.

For `Cc1ccc(-c2nnc(-c3cccc(NC(=O)CCCCCCO)c3)o2)cc1`, the IC50 [2] was 1.32 µM.

With `CC#CCn1c(N2CCC[C@@H](N)C2)nc2c(C)c(=O)n(Cc3nc(C)c4c(Cl)cccc4n3)c(=O)n21` the IC50 [14] was 0.0007 µM.

For `CC1=C(CC(=O)O)c2cc(F)ccc2/C1=C\c1ccc([S+](C)[O-])cc1` (configuration not stated), the IC50 [5] was 0.293 µM.

With `CCCc1c(C(C)C)cc(C(C)C)c([C@@H](C)O)c1-c1ccc(F)cc1` the IC50 [15] was 0.11 µM.

Compound `CC#CCn1c(N2CCC[C@@H](N)C2)nc2c(C)c(=O)n(Cc3nc(C)c4c(F)cccc4n3)c(=O)n21` has an IC50 [14] of 0.0005 µM.

`Cc1cc(OCc2ccc(C(=O)O)cc2)ccc1/C=C1\SC(=S)N(Cc2ccc(C(=O)O)cc2)C1=O` showed an IC50 [6] of 0.24 µM.

For `CCCCNCn1nc(-c2cc3ccccc3oc2=O)oc1=S`, the IC50 [4] was 3.36 µM and the IC50 [5] was 0.31 µM.

In the case of `O=C1NC(=O)[C@@]2(CCOc3ccc(F)cc32)N1` [SORBINIL], the IC50 [3] is reported as 0.0031 µM.
